Source: patent US20080234262A1 (Wyeth, priority 2007, published 2008)

Target: PI3K (Homo sapiens, UniProt P42336)
Test: Fluorescence polarization assay for PI3K;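 further: PI3K kinase reaction on PIP2 with ATP, 30-60 min, product sensed by GST-GRP with red probe in fluorescence polarization (mP), controls without enzyme and at zero time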
Type: biochemical
Conditions: PI3Kα; read-out: PI3Kα IC50

Sequence of PI3K (P42336 whole entry): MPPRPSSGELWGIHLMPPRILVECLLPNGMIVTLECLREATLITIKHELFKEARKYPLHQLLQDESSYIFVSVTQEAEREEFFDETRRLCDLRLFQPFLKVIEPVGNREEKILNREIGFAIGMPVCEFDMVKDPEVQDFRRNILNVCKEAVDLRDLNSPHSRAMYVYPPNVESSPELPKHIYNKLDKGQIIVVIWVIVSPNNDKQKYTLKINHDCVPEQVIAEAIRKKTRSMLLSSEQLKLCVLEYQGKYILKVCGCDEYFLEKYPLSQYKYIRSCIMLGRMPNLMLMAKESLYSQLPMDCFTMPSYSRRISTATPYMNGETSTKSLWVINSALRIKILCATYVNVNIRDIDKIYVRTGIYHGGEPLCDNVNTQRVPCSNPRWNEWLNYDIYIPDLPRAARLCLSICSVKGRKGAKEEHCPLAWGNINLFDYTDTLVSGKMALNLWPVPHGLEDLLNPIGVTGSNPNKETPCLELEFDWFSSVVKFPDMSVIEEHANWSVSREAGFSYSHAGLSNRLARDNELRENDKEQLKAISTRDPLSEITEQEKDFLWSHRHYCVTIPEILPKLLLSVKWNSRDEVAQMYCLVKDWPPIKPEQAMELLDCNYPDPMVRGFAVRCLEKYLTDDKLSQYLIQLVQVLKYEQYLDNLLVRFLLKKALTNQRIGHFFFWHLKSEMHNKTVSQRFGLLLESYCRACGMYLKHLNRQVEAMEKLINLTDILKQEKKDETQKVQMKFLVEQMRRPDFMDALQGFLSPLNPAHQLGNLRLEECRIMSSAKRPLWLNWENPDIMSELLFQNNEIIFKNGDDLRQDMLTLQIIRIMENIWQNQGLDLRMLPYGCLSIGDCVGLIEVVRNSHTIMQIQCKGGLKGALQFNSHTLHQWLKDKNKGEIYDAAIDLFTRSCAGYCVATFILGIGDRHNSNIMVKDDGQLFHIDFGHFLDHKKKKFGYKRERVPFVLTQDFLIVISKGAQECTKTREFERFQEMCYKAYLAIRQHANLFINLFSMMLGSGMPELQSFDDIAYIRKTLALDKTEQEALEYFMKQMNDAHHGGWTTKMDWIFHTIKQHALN
Sequence of PI3K (P27986 whole entry partner): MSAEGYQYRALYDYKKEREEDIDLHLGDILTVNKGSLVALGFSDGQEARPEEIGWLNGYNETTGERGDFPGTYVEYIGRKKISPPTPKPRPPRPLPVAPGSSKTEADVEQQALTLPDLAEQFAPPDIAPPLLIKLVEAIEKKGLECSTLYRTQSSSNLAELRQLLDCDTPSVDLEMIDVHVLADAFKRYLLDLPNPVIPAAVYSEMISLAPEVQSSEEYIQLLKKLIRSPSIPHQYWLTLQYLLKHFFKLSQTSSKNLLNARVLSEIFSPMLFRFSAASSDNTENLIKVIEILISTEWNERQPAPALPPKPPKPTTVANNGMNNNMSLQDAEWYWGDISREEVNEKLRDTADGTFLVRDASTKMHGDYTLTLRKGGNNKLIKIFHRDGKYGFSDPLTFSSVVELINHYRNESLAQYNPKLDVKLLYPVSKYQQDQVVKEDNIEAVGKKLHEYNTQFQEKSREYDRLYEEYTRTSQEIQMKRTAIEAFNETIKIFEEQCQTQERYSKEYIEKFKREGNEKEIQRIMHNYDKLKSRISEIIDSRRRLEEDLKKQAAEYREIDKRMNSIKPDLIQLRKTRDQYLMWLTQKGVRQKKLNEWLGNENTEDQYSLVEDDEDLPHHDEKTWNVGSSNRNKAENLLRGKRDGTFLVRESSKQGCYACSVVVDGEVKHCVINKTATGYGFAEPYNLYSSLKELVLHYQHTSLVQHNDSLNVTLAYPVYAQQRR

Compound | IC50
CNC(=O)Nc1ccc(-c2nc(N3CCOCC3)c3cnn(C4CCN(Cc5ccncc5)CC4)c3n2)cc1 [Compound 670, 1-methyl-3-(4-{4-morpholin-4-yl-1-[1-(pyridin-4-ylmethyl)piperidin-4-yl]-1H-pyrazolo[3,4-d]pyrimidin-6-yl}phenyl)urea] | 112 nM
CNC(=O)Nc1ccc(-c2nc(N3CCOCC3)c3cnn(C4CCN(Cc5ccc(Cl)cc5)CC4)c3n2)cc1 [Compound 639, 1-(4-{1-[1-(4-chlorobenzyl)piperidin-4-yl]-4-morpholin-4-yl-1H-pyrazolo[3,4-d]pyrimidin-6-yl}phenyl)-3-methylurea] | 18 nM
CNC(=O)Nc1ccc(-c2nc(N3CCOCC3)c3cnn(C4CCN(C(=O)c5cccnc5)CC4)c3n2)cc1 [Example 226, 1-methyl-3-(4-{4-morpholin-4-yl-1-[1-(pyridin-3-ylcarbonyl)piperidin-4-yl]-1H-pyrazolo[3,4-d]pyrimidin-6-yl}phenyl)urea] | 548 nM
O=C(O)Cc1ccc(-c2nc(N3CCOCC3)c3cnn(C4CCN(Cc5ccccc5)CC4)c3n2)cc1 [Compound 353, {4-[1-(1-benzylpiperidin-4-yl)-4-morpholin-4-yl-1H-pyrazolo[3,4-d]pyrimidin-6-yl]phenyl}acetic acid] | 1260 nM
Nc1ccc(-c2nc(N3CCOCC3)c3cn[nH]c3n2)cc1 [Example 285, 4-(4-morpholin-4-yl-1H-pyrazolo[3,4-d]pyrimidin-6-yl)aniline] | 1610 nM
CCNC(=O)Nc1ccc(-c2nc(N3CCOCC3)c3cnn(C4CCN(Cc5cccnc5)CC4)c3n2)cn1 [Compound 479, 1-ethyl-3-(5-{4-morpholin-4-yl-1-[1-(pyridin-3-ylmethyl)piperidin-4-yl]-1H-pyrazolo[3,4-d]pyrimidin-6-yl}pyridin-2-yl)urea] | 138 nM
Oc1cccc(-c2nc(N3CCOCC3)c3c(F)nn(-c4ccccc4)c3n2)c1 [Compound 964, 3-(3-fluoro-4-morpholin-4-yl-1-phenyl-1H-pyrazolo[3,4-d]pyrimidin-6-yl)phenol] | 70 nM
CNC(=NC#N)Nc1ccc(-c2nc(N3CCOCC3)c3cnn(C4CCN(C(=O)c5cccnc5)CC4)c3n2)cc1 [Compound 656, 2-cyano-1-methyl-3-(4-{4-morpholin-4-yl-1-[1-(pyridin-3-ylcarbonyl)piperidin-4-yl]-1H-pyrazolo[3,4-d]pyrimidin-6-yl}phenyl)guanidine] | 382 nM
COC(=O)Nc1ccc(-c2nc(N3CCOCC3)c3cnn(C4CCN(C(=O)c5cccnc5)CC4)c3n2)cc1 [Example 223, methyl (4-{4-morpholin-4-yl-1-[1-(pyridin-3-ylcarbonyl)piperidin-4-yl]-1H-pyrazolo[3,4-d]pyrimidin-6-yl}phenyl)carbamate] | 514 nM
N#CNC(=O)Nc1ccc(-c2nc(N3CCOCC3)c3cnn(C4CCN(Cc5cccnc5)CC4)c3n2)cc1 [Compound 653, N′-cyano-N-(4-{4-morpholin-4-yl-1-[1-(pyridin-3-ylmethyl)piperidin-4-yl]-1H-pyrazolo[3,4-d]pyrimidin-6-yl}phenyl)carbamimidic acid] | 363 nM
CC(=O)Nc1ccc(-c2nc(N3CCOCC3)c3cnn(C4CCN(Cc5cccnc5)CC4)c3n2)cc1 [Example 158, N-(4-{4-morpholin-4-yl-1-[1-(pyridin-3-ylmethyl)piperidin-4-yl]-1H-pyrazolo[3,4-d]pyrimidin-6-yl}phenyl)acetamide] | 404 nM
O=C(Nc1ccccc1)Nc1ccc(-c2nc(N3CCOCC3)c3cnn(C4CCN(C(=O)c5cccnc5)CC4)c3n2)cc1 [Example 343, 1-(4-{4-morpholin-4-yl-1-[1-(pyridin-3-ylcarbonyl)piperidin-4-yl]-1H-pyrazolo[3,4-d]pyrimidin-6-yl}phenyl)-3-phenylurea] | 14 nM
CNC(=O)Nc1cc(F)c(-c2nc(N3CCOCC3)c3cnn(C4CCN(C(=O)c5cccnc5)CC4)c3n2)cc1F [Example 465, 1-(2,5-difluoro-4-{4-morpholin-4-yl-1-[1-(pyridin-3-ylcarbonyl)piperidin-4-yl]-1H-pyrazolo[3,4-d]pyrimidin-6-yl}phenyl)-3-methylurea] | 1540 nM
O=C(Nc1ccc(-c2nc(N3CCOCC3)c3cnn(C4CCN(C(=O)c5cccnc5)CC4)c3n2)cc1)NC1CC1 [Compound 659, 1-cyclopropyl-3-(4-{4-morpholin-4-yl-1-[1-(pyridin-3-ylcarbonyl)piperidin-4-yl]-1H-pyrazolo[3,4-d]pyrimidin-6-yl}phenyl)urea] | 357 nM
c1cc2cc(-c3nc(N4CCOCC4)c4cn[nH]c4n3)ccc2[nH]1 [Compound 929, 6-(1H-indol-5-yl)-4-morpholin-4-yl-1H-pyrazolo[3,4-d]pyrimidine] | 939 nM
C=CC(=O)N1CCC(n2ncc3c(N4CCOCC4)nc(-c4ccc(NC(=O)OC)cc4)nc32)CC1 [Compound 702, methyl {4-[1-(1-acryloylpiperidin-4-yl)-4-morpholin-4-yl-1H-pyrazolo[3,4-d]pyrimidin-6-yl]phenyl}carbamate] | 1980 nM
c1ccc(CN2CCC(n3ncc4c(N5CCOCC5)nc(-c5ccc6ncccc6c5)nc43)CC2)cc1 [Compound 937, 6-[1-(1-benzylpiperidin-4-yl)-4-morpholin-4-yl-1H-pyrazolo[3,4-d]pyrimidin-6-yl]quinoline] | 466 nM

Compound | IC50
O=C(Nc1ccc(-c2nc(N3CCOCC3)c3cnn(C4CCN(Cc5ccccc5)CC4)c3n2)cc1)C(F)(F)F [Compound 299, N-{4-[1-(1-benzylpiperidin-4-yl)-4-morpholin-4-yl-1H-pyrazolo[3,4-d]pyrimidin-6-yl]phenyl}-2,2,2-trifluoroacetamide] | 1900 nM
CC(=O)Nc1ccc(-c2nc(N3CCOCC3)c3cnn(C4CCCCO4)c3n2)cc1 (stereo not shown) [Compound 925, N-{4-[4-morpholin-4-yl-1-(tetrahydro-2H-pyran-2-yl)-1H-pyrazolo[3,4-d]pyrimidin-6-yl]phenyl}acetamide] | 1650 nM
Oc1cncc(-c2nc(N3CCOCC3)c3cnn(C4CCN(Cc5ccccc5)CC4)c3n2)c1 [Compound 250, 5-[1-(1-benzylpiperidin-4-yl)-4-morpholin-4-yl-1H-pyrazolo[3,4-d]pyrimidin-6-yl]pyridin-3-ol] | 37 nM
CNC(=O)Nc1ccc(-c2nc(N3CCOCC3)c3cnn(C4CCN(Cc5cccc(OC)c5)CC4)c3n2)cc1 [Compound 645, 1-(4-{1-[1-(3-methoxybenzyl)piperidin-4-yl]-4-morpholin-4-yl-1H-pyrazolo[3,4-d]pyrimidin-6-yl}phenyl)-3-methylurea] | 43 nM
CCNC(=O)Nc1cc(F)c(-c2nc(N3CCOCC3)c3cnn(C4CCN(C(=O)c5cccnc5)CC4)c3n2)cc1F [Compound 710, 1-(2,5-difluoro-4-{4-morpholin-4-yl-1-[1-(pyridin-3-ylcarbonyl)piperidin-4-yl]-1H-pyrazolo[3,4-d]pyrimidin-6-yl}phenyl)-3-ethylurea] | 3110 nM
CNC(=O)Nc1ccc(-c2nc(N3CCOCC3)c3cnn(C4CCN(C(=O)c5cnccn5)CC4)c3n2)cc1 [Compound 666, 1-methyl-3-(4-{4-morpholin-4-yl-1-[1-(pyrazin-2-ylcarbonyl)piperidin-4-yl]-1H-pyrazolo[3,4-d]pyrimidin-6-yl}phenyl)urea] | 198 nM
N#CN=C(N)Nc1ccc(-c2nc(N3CCOCC3)c3cnn(C4CCN(C(=O)c5cccnc5)CC4)c3n2)cc1 [Compound 655, 2-cyano-1-(4-{4-morpholin-4-yl-1-[1-(pyridin-3-ylcarbonyl)piperidin-4-yl]-1H-pyrazolo[3,4-d]pyrimidin-6-yl}phenyl)guanidine] | 344 nM
COC(=O)Nc1ccc(-c2nc(N3CCOCC3)c3cnn(C4CCN(C(=O)c5ccc(F)cc5F)CC4)c3n2)cc1 [Compound 693, methyl (4-{1-[1-(2,4-difluorobenzoyl)piperidin-4-yl]-4-morpholin-4-yl-1H-pyrazolo[3,4-d]pyrimidin-6-yl}phenyl)carbamate] | 800 nM
NCCC(=O)Nc1ccc(-c2nc(N3CCOCC3)c3cn[nH]c3n2)cc1 [Compound 529, N-[4-(4-morpholin-4-yl-1H-pyrazolo[3,4-d]pyrimidin-6-yl)phenyl]-b-alaninamide] | 202 nM
CNC(=NC#N)Nc1ccc(-c2nc(N3CCOCC3)c3cnn(C4CCN(Cc5cccnc5)CC4)c3n2)cc1 [Compound 651, 2-cyano-1-methyl-3-(4-{4-morpholin-4-yl-1-[1-(pyridin-3-ylmethyl)piperidin-4-yl]-1H-pyrazolo[3,4-d]pyrimidin-6-yl}phenyl)guanidine] | 774 nM
COC(=O)Nc1ccc(-c2nc(N3CCOCC3)c3cnn(C4CCN(C(=O)c5ccccc5OC)CC4)c3n2)cc1 [Compound 690, methyl (4-{1-[1-(2-methoxybenzoyl)piperidin-4-yl]-4-morpholin-4-yl-1H-pyrazolo[3,4-d]pyrimidin-6-yl}phenyl)carbamate] | 888 nM
Nc1ccc(-c2nc(N3CCOCC3)c3cn[nH]c3n2)cc1 [Compound 531, 4-(4-morpholin-4-yl-1H-pyrazolo[3,4-d]pyrimidin-6-yl)aniline] | 1610 nM
Cn1ncc2c(N3CCOCC3)nc(-c3cccnc3)nc21 [Compound 1] | 813 nM
CNC(=O)Nc1ccc(-c2nc(N3CCOCC3)c3cnn(C4CCN(C(=O)c5ccncc5)CC4)c3n2)cc1 [Compound 661, 1-{4-[1-(1-isonicotinoylpiperidin-4-yl)-4-morpholin-4-yl-1H-pyrazolo[3,4-d]pyrimidin-6-yl]phenyl}-3-methylurea] | 160 nM
Cn1ncc2c(N3CCOCC3)nc(-c3ccoc3)nc21 [Compound 3] | 915 nM
COC(=O)Nc1ccc(-c2nc(N3CCOCC3)c3cnn(C4CCN(C(=O)N5CCN(C)CC5)CC4)c3n2)cc1 [Compound 692, methyl [4-(1-{1-[(4-methylpiperazin-1-yl)carbonyl]piperidin-4-yl}-4-morpholin-4-yl-1H-pyrazolo[3,4-d]pyrimidin-6-yl)phenyl]carbamate] | 725 nM
CNC(=O)Nc1ccc(-c2nc(N3CCOCC3)c3cnn(C4CCN(Cc5cccc(Cl)c5)CC4)c3n2)cc1 [Compound 640, 1-(4-{1-[1-(3-chlorobenzyl)piperidin-4-yl]-4-morpholin-4-yl-1H-pyrazolo[3,4-d]pyrimidin-6-yl}phenyl)-3-methylurea] | 42 nM
